Data on five molecules can be found in publication PMC11843613, “Further Optimization of the mGlu1 PAM VU6024578/BI02982816: Discovery and Characterization of VU6033685” (ACS Chemical Neuroscience, 2025).

Where only a bound is given, the exact number is not on record here.

The IC50 is the concentration at which inhibition is half-maximal. A higher IC50 goes with lower potency. In general, Tmax refers to the time at which the peak concentration occurs.

In one series the target is T1, CYP450 2D6 (Homo sapiens, UniProt P10635).
T1 construct: 0.1 mg/mL human liver microsomes (HLM); from tissue; host or cells: human liver microsomes
Briefly: Inhibition of cytochrome P450 enzymes in human liver microsomes, 2D6. It is filed as in vitro ADME. The method, then: (§1) Inhibition of Cytochrome P450 Enzymes: A cocktail of substrates for cytochrome P450 enzymes (1A2: Phenacetin, 10 µM; 2C9: Diclofenac, 5 µM; 2D6: Dextromethorphan, 5 µM; 3A4:
(§2) Midazolam, 2 µM) were mixed for cocktail analysis. For P450 2C19, the substrate stock (Mephenytoin, 40 µM )and substrate mix were prepared separately for discrete analysis. The […]
(§3) positive control for pan-P450 inhibition (miconazole) was included alongside each test compound […]
(§4) A reaction mixture of 100 mM Kpi, pH 7.4, 0.1 mg/mL human liver microsomes (HLM) and Substrate Mix is prepared and aliquoted into a 96-deepwell block. Test compound and positive control (in duplicate) were then added such that the final concentration of test compound ranged from 0.1 – 30 µM. The plate was vortexed briefly and then pre-incubated at 37 °C while shaking for 15 minutes. The reaction was initiated with the addition of NADPH (1 mM final concentration). The incubation continued for 8 min and the reaction quenched by 2x volume of cold acetonitrile containing internal standard (50 nM carbamazepine). The plate was centrifuged for 10 minutes (4000 rcf, 4°C) and the resulting supernatant diluted 1:1 with water for LC/MS/MS analysis. A 12 point standard curve of substrate metabolites over the range of 0.98 nM to 2000 […]
(§5) Samples were analyzed via electrospray ionization (ESI) on an AB Sciex API-4000 (Foster City, CA) triple-quadrupole instrument that was coupled with Shimadzu LC-10AD pumps (Columbia, MD) and a Leap Technologies CTC PAL auto-sampler (Carrboro, NC). Analytes were separated by gradient elution using a Fortis C18 3.0 x 50 mm, 3 µm column (Fortis Technologies Ltd, Cheshire, UK) thermostated at 40°C. HPLC mobile phase A was 0.1% formic acid in water (pH unadjusted), mobile phase B was 0.1% formic acid in acetonitrile (pH unadjusted). The gradient […]
(§6) 90% B for 0.1 min and returned to 10% B in 0.1 min followed by a re-equilibration (0.9 min). The total run time was 2.5 min and the HPLC flow rate was 0.5 mL/min. The source temperature was set at 500°C and mass spectral analyses were performed using multiple reaction monitoring (MRM), with transitions specific for each compound utilizing a Turbo-Ionspray® source in positive ionization mode (5.0 kV spray voltage).
(§7) The IC50 values for each compound were obtained for the individual CYP enzymes by quantitating the inhibition of metabolite formation for each probe substrate. A 0 µM compound condition (or control) was set to 100% enzymatic activity and the effect of increasing test compound concentrations on enzymatic activity could then be calculated from the % of control activity.
(§8) Curves were fitted using XLfit 5.2.2 (four-parameter logistic model, equation 201) to determine the concentration that produces half-maximal inhibition (IC50).
For orientation: Liver microsomes are vesicles of endoplasmic reticulum, rich in cytochrome P450 enzymes.

Series [1] can be described thus: Unbound fraction in brain (rat). It is filed as in vitro ADME. The note with it: read-out: fu brain (rat).
The nature of series [2]: Predicted hepatic clearance from hepatic microsomes (human). It is filed as in vitro ADME. On the procedure:
(§9) Intrinsic clearance: Human or rat hepatic microsomes (0.5 mg/mL) and 1 µM test compound were incubated in 100 mM potassium phosphate pH 7.4 buffer with 3 mM MgCl2 at 37°C with constant shaking.
(§10) After a 5 min preincubation, the reaction was initiated by addition of NADPH (1 mM). At selected time intervals (0, 3, 7, 15, 25, and 45 min), aliquots were taken and subsequently placed into a 96-well plate containing cold acetonitrile with internal standard (50 ng/mL carbamazepine). Plates were then centrifuged at 3000 rcf (4° C) for 10 min, and the supernatant was transferred to a separate 96-well plate and diluted 1:1 with water for LC/MS/MS analysis. The in vitro half-life (T 1/2, min, Eq. 1), intrinsic clearance (CLint, mL/min/kg, Eq. 2) and subsequent predicted hepatic clearance (CLhep, mL/min/kg, Eq. 3) was determined […]
(§11) employing the following equations: […]
(§12) where k represents the slope from linear regression analysis of the natural log percent remaining of test compound as a function of incubation time
(§13) 0.693 mL incubation 45 mg microsomes 20a gram liver
(§14) (2) CLint = in vitroT x mg microsomes x gram liver x kg body wt […]
(§15) ascale-up factors: of 20 (human) or 45 (rat) […]
(§16) where Qh (hepatic blood flow, mL/min/kg) is 21 (human) or 70 (rat).
(§17) LC/MS/MS Bioanalysis of Samples from Plasma Protein Binding and Intrinsic Clearance Assays. Samples were analyzed on a Thermo Electron TSQ Quantum Ultra triple quad mass spectrometer (San Jose, CA) via electrospray ionization (ESI) with two Themo Electron Accella pumps (San Jose, CA), and a Leap Technologies CTC PAL autosampler (Carrboro, NC). Analytes were separated by gradient elution on a dual column system with two Thermo Hypersil Gold (2.1 x 30 mm, 1.9 µm) columns (San Jose, CA) thermostated at 40°C. HPLC mobile phase A was 0.1% formic acid in water and mobile phase B was 0.1% formic acid in acetonitrile. The gradient […]
(§18) 95% B for 0.2 min; returned to 10% B in 0.1 min. The total run time was 1.3 min and the HPLC flow rate was 0.8 mL/min. While pump 1 ran the gradient method, pump 2 equilibrated the alternate column isocratically at 10% B. Compound optimization, data collection and […]

A short description of series [3]: Predicted hepatic clearance from hepatic microsomes (rat). It is filed as in vitro ADME. The method, then: as §9, §10, §11, §12, §13, §14, §15, §16, §17, §18
For the next series, the target named is T2, CYP450 2C9 (Homo sapiens, UniProt P11712).
T2 construct: 0.1 mg/mL human liver microsomes (HLM); from tissue; host or cells: human liver microsomes
The series is described as follows: Inhibition of cytochrome P450 enzymes in human liver microsomes, 2C9. It is filed as in vitro ADME. On the procedure: as §1, §2, §3, §4, §5, §6, §7, §8

Another series addresses T3, CYP450 3A4 (Homo sapiens, UniProt P08684).
T3 construct: 0.1 mg/mL human liver microsomes (HLM); from tissue; host or cells: human liver microsomes
The series is described as follows: Inhibition of cytochrome P450 enzymes in human liver microsomes, 3A4. Type of series: in vitro ADME. On the procedure: as §1, §2, §3, §4, §5, §6, §7, §8

The nature of series [4]: Rat IV/PO pharmacokinetics. Type of series: in vivo. The conditions noted are these: for clearance / Vd / half-life / Tmax: plasma; for clearance / Vd: rat IV; for clearance: read-out: CLp; for F po / Tmax: rat PO; for Vd / half-life: rat; for Vd: iv, read-out: Vss; for half-life: read-out: Elimination t1/2 (converted).

T3 sequence (P08684 whole entry): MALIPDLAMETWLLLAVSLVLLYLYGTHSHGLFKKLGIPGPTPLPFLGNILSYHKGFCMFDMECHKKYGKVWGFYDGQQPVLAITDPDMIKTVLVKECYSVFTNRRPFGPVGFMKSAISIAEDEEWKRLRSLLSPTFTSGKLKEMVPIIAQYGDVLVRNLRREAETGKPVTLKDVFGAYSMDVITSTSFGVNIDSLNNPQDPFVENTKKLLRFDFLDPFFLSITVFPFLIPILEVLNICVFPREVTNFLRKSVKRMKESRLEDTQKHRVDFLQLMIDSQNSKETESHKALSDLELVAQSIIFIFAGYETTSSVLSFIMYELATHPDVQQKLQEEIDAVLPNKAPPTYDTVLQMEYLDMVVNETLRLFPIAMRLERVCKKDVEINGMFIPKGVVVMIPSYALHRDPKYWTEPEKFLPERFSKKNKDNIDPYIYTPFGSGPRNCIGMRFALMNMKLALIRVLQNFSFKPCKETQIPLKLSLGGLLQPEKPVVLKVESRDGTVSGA
T2 sequence (P11712 whole entry): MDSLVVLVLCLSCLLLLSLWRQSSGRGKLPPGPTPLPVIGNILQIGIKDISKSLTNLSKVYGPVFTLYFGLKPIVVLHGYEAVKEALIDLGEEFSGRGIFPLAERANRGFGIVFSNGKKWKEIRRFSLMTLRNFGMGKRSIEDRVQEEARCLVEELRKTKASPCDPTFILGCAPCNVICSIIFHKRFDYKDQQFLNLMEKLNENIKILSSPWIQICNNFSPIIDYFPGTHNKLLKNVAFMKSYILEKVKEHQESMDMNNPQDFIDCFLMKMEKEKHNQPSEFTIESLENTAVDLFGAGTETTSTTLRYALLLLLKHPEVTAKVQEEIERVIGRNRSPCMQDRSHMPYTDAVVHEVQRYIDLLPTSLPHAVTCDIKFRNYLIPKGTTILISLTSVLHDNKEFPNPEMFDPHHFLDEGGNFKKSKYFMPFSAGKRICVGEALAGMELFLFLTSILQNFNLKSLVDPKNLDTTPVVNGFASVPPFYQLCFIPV
T1 sequence (P10635 whole entry): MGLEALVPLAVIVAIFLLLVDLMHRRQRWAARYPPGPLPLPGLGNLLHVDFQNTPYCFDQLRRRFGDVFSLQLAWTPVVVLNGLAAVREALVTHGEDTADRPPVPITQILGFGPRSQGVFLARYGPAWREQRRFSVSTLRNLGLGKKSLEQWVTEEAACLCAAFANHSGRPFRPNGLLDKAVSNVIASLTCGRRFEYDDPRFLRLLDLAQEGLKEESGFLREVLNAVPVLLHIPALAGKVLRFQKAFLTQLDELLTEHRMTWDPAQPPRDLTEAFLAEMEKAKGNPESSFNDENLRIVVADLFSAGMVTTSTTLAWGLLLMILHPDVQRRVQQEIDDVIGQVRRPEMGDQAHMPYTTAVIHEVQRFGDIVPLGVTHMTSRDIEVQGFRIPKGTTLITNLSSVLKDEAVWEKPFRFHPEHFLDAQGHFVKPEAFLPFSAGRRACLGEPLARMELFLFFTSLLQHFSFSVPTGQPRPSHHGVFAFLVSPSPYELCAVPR

With `Cn1cc(-c2cc(CNC(=O)c3cc(-c4ccco4)ccc3Cl)n(C)n2)cn1` [compound 4], the IC50 against CYP450 2D6, against CYP450 2C9 and against CYP450 3A4 was over 30 µM each time. In series [1], the fraction unbound was determined as 0.044. Further, in series [2], the “Predicted CLhep (h)” value is on record as 15.1 mL/min/kg. Besides, the “Predicted CLhep (r)” value in series [3] is on record as 34.2 mL/min/kg.

As for `Cn1nc(-c2ccnn2C)cc1CNC(=O)c1cc(-n2cccn2)ccc1Cl` [compound 5], in series [4], the clearance was 2.9 mL/min/kg, the F po was found to be 45.7%, the Vd was found to be 0.63 L/kg and the half-life was 3 h. The molecule also showed a 50% inhibitory concentration (IC50) on CYP450 2D6 of over 30 µM. For the same molecule, the fraction unbound in series [1] is 0.185. The “Predicted CLhep (h)” value in series [2] was 4.6 mL/min/kg. Further, the “Predicted CLhep (r)” value in series [3] was 21.4 mL/min/kg. The molecule further yielded a 50% inhibitory concentration (IC50) at CYP450 2C9 of over 30 µM. The same molecule showed an IC50 on CYP450 3A4 of over 30 µM.

As to `Cc1nc2ccccc2cc1CNC(=O)c1cc(-n2cccn2)ccc1Cl` [compound 6], in series [4], the clearance stood at 15.3 mL/min/kg, the time of peak concentration (Tmax) is 0.5 h, the F po was found to be 64% and the Vd came to 1.64 L/kg. In addition, in series [4], the half-life was 1.1 h. Also, it took 6.9 µM to reach half-maximal inhibition against CYP450 2D6 (IC50). In series [1], the fraction unbound was determined as 0.047. Also, in series [2], the “Predicted CLhep (h)” value is listed as 15.8 mL/min/kg. Moreover, the “Predicted CLhep (r)” value in series [3] is listed as 47.8 mL/min/kg. This molecule registered a concentration for half-maximal inhibition (IC50) on CYP450 2C9 of 6.4 µM. The molecule further registered a 50% inhibitory concentration (IC50) against CYP450 3A4 of 8.8 µM.

As for `Cc1nc2c(F)cccc2cc1CNC(=O)c1cc(-n2cccn2)ccc1Cl` [compound 7], in series [4], the clearance worked out at 8 mL/min/kg, the Vd came out at 1 L/kg and the half-life is 2.1 h. At CYP450 2D6, this molecule came in with an IC50 of over 30 µM. Further, in series [1], the fraction unbound worked out at 0.04. Moreover, in series [2], the “Predicted CLhep (h)” value is given as 13.3 mL/min/kg. In series [3], the “Predicted CLhep (r)” value is listed as 46.8 mL/min/kg. Moreover, at CYP450 2C9, the IC50 came to 5.9 µM. In addition, the midpoint of inhibition against CYP450 3A4, the IC50, lay at 9 µM.

For `Cc1nc(C2CC2)ccc1CNC(=O)c1cc(-n2cccn2)ccc1Cl` [compound 8], in series [4], the clearance amounted to 26.4 mL/min/kg, the Tmax is 0.5 h, the F po was determined as 42.8% and the Vd is 5.1 L/kg. For the same molecule, the half-life in series [4] is 2.1 h. Moreover, the IC50 at CYP450 2D6 was over 30 µM. The fraction unbound in series [1] was 0.062. The “Predicted CLhep (h)” value in series [2] is 9.9 mL/min/kg. In addition, in series [3], the “Predicted CLhep (r)” value was 46.7 mL/min/kg. For the same molecule, the IC50 against CYP450 2C9 turned out to be 22.3 µM. This molecule yielded a 50% inhibitory concentration (IC50) at CYP450 3A4 of 23.8 µM.
